Entries after “also recorded” stand apart in the source; their conditions may differ.
What was measured:
[1] = tested on: Friend erythroleukemia cells (FLC); assay: Stability of stored ALA salt solutions, read out as porphyrin formation in FLC by flow cytometry; assay type: cell-based; settings: for Stability of solutions on storage (porphyrin formation in cells): 0.1 mg/ml, 7 days at 4° C. and at 37° C.; for Stability in aqueous and non-aqueous media: aqueous as well as non-aqueous media such as PEG
Description: (§1) Flow cytometry for cellular PpIX. […] After the incubation, the cells were washed with Ca^+2—Mg+^2 free PBS and scraped off with a rubber policeman. After a 10 min centrifugation at 1100 RPM, the supernatant was decanted and the pellet was resuspended in 0.5 ml Ca^+2—Mg^+2 free PBS. The cell suspension was filtered and measured using a Fluorescence Activated Cell Sorter (Becton Dickinson FACS Calibur, Mountain View, Calif., USA). 10,000 cells were measured in each sample using an excitation wavelength of 488 nm, and emission >600 nm, respectively.
. […] (a), 37° C. (b), or after no storage (c). In controls (d), no ALA salt was presented to the cells. The cells were then examined for the presence of PpIX by flow cytometry at […]. […]

[2] = background statement, cited from earlier work
[3] = tested on: Friend erythroleukemia cells (FLC); assay: PpIX formation in FLC by HPLC analysis of extracted porphyrins; assay type: cell-based; settings: 0.1 mg/ml, 4 h, retention time typical of PpIX
Description: (§2) Cell culture. Friend erythroleukemia cells (FLC) and B16 melanoma cells were grown in a DMEM medium and RPMI 1640, respectively, (Biological Industries, Beit-Haemek, Israel), supplemented with 10% fetal calf serum and antibiotics, on tissue culture plates (Corning, Cambridge, Mass., USA) and incubated at 37° C. in a humidified atmosphere with 8% CO2. The cells were re-cultured twice a week.
(§3) Extraction of porphyrins from cells. FLC were incubated with 0.1 mg/ml ALA-HCl, AN 301, or AN 302 for 4 h. The cells were then washed and suspended in 750 μl glacial acetic acid. The cells were then sonicated on ice, at an amplitude of 1-2, three times for 45 sec, with 15 sec between successive sonications. Following the sonication, the lysate was transferred to glass test tubes containing 2.25 ml ethyl acetate, vigorously vortexed and centrifuged for 15 min at 3000 rpm. 2.6 ml of the supernatant were then transferred to glass test tubes containing 500 μl/1000 μl 1 M HCl and incubated overnight at 4° C. in the dark. Two phases formed, a lower inorganic phase and an upper organic phase containing the porphyrins. 300-700 μl from the organic phase was carefully removed with a Pasteur pipet. The porphyrins were then examined by HPLC and by spectroscopy.
High pressure liquid chromatograph [HPLC] analysis of porphyrins. Extracted porphyrins were purified by HPLC on an Apex Presil C18 8μ column (Jones, Chromatography, Lakewood, Colo.) using a 0-50% linear gradient aetonitrile (+0.1% trifluoroacetic acid) over 40-min elution at 47% acetonitrile.

[4] = tested on: Friend erythroleukemia cells (FLC); assay: PpIX formation in FLC by fluorescence spectroscopy of extracted porphyrins; assay type: cell-based; settings: 0.1 mg/ml, 4 h, excitation 410 nm, characteristic major peak at 633
Description: as §2, §3
Fluorometry of porphyrins. Fluorescence spectroscopy of the extrated porphyrins was examined using a SLM-Aminco spectrometer. Emission spectra were recorded following excitation at 410 nm.

[5] = tested on: B16 melanoma cells; assay: ALA treatment, photosensitization and MTT assay; assay type: cell-based; settings: 0.6 mM, 4 hr, irradiation 360-410 nm, MTT after 24 hr
Description: as §2
ALA treatment and photosensitization. […] At the end of the incubation period, the cells were irradiated using a Vilber Lourmat lamp, VL-206BL, delivering a power density of 22.5 mW at 360-410 nm. Light intensity was measured with a Nova photometer (Ophir Optronics, Jerusalem).
MTT assay. The effect of PDT on cell viability was measured after 24 hr. by a modified MTT assay which is based on the ability of live cells to cleave the tetrazolium ring to a molecule that absorbs at 590 nm in active mitochondria (Mosmann, 1983). 2×10^3 cells were grown in 96-well plates. The growth medium was replaced and 20 μl MTT (3-(4,5-dimethylthiazol-2-yl)-2,5-diphenyl tetrazolium bromide), 5 mg/ml PBS (Sigma, Chemical Co, St. Louis, Mo., USA), were added to each well. The cells were further incubated at 37° C. for 2 h. For lysis of the cells, N,N-dimethyformamide was added to the media for 5 hours and absorbance was then measured at 590 nm.

[6] = tested on: Friend erythroleukemia cells (FLC); assay: Flow cytometry for cellular PpIX after uptake of ALA salt; assay type: cell-based; settings: stock solutions in H2O, PEG, buffer pH7
Description: as §2, §1
. Stock solutions of the ALA salt were made up in (a) H2O, (b) PEG, and (c) buffer pH7. […]. The ALA salt was then presented to the cells, and biosynthesis of PpIX was determined by flow cytometry. In controls (d) no ALA salt was presented to the cells. Typical results are shown in FIG. 3 in which the horizontal axis is florescence intensity (in arbitrary units), and the vertical axis is the number of cells having a given intensity level. […]

[7] = stock solution stored 7 days, 4° C.
[8] = stock solution stored 7 days, 37° C.

In the case of `Cl.NCC(=O)CCC(=O)O` [ALA-HCl, reference compound], the “Stability of solutions on storage (porphyrin formation in cells)” value (“Stability of solutions on storage” for short) [1] is reported as “completely degraded”, the “porphyrin formation in FLC by flow cytometry” value (“porphyrin formation in FLC” below) [1, 7] is reported as 3.5 arbitrary units and the “porphyrin formation in FLC” value [1, 8] is reported as 3.5 arbitrary units. For the same molecule, the “porphyrin formation in FLC” value ([1]; stock solution, storage time 0) was 60 arbitrary units, the “Solubility in aqueous media” value ([2]; aqueous media) was “soluble” and the “Solubility in organic solvents including polyethylene glycol (PEG)” value ([2]; organic solvents including PEG) was “insoluble”. For the same molecule, the “PpIX formation in the cells as determined by HPLC” value (“PpIX formation … by HPLC” below) [3] was “same porphyrin (PpIX) was generated” and the “PpIX formation in the cells by spectroscopy” value [4] was “same porphyrin product was generated”.
In the case of `NCC(=O)CCC(=O)O.O=S(=O)(O)c1ccccc1` [AN-301, 5-Amino4-oxopentanoic acid benzenesulfonate], the “Stability of solutions on storage” value ([1]; benzenesulfonate) is reported as “stable; also recorded: retained significant activity”, the “Stability in aqueous and non-aqueous media” value [1] is reported as “stable” and the “porphyrin formation in FLC” value [1, 7] is reported as 39 arbitrary units. For the same molecule, the “porphyrin formation in FLC” value [1, 8] was 39 arbitrary units, the “porphyrin formation in FLC” value ([1]; stock solution, storage time 0) was 57 arbitrary units and the “Cell death / viability (MTT activity) following illumination” value [5] was “as effective as ALA-HCl in causing cell death”. The “PpIX formation … by HPLC” value [3] was “same porphyrin (PpIX) was generated”, the “formation of PpIX inside the cells by flow cytometry” value [6] was “leads to the formation of PpIX inside the cells” and the “Solubility in stock solution solvents” value (H2O, PEG, and buffer pH7) was “soluble in each of these three solvents”. The “Lipid solubility PEG” value (PEG) was “soluble in PEG”, the “Solubility in aqueous and non-aqueous media” value (aqueous as well as non-aqueous media such as PEG) was “soluble” and the “PpIX formation in the cells by spectroscopy” value [4] was “same porphyrin product was generated”.
In the case of `NCC(=O)CCC(=O)O` [AN-302, 5-Amino-4-oxopentanoic acid 2-naphtylsulfonate], the “Stability of solutions on storage” value [1] is reported as “stable; also recorded: retained significant activity”, the “porphyrin formation in FLC” value [1, 7] is reported as 23 arbitrary units and the “porphyrin formation in FLC” value [1, 8] is reported as 29 arbitrary units. The “porphyrin formation in FLC” value ([1]; stock solution, storage time 0) was 49 arbitrary units, the “Cell death / viability (MTT activity) following illumination” value [5] was “as effective as ALA-HCl in causing cell death” and the “PpIX formation … by HPLC” value [3] was “same porphyrin (PpIX) was generated”. The “formation of PpIX inside the cells by flow cytometry” value [6] was “leads to the formation of PpIX inside the cells” and the “PpIX formation in the cells by spectroscopy” value [4] was “same porphyrin product was generated”.
In the case of `NCC(=O)CCC(=O)O.O=S(=O)(O)c1ccc2ccccc2c1` [AN-302, 5-Amino-4-oxopentanoic acid 2-naphtylsulfonate], the “Stability in aqueous and non-aqueous media” value [1] is reported as “stable”.

— US20070225518A1, “5-Aminolevulinic acid salts and their use” (priority 2006, published 2007)
